The source of these data is US11919897B2, “Inhibitors of human immunodeficiency virus replication” (VIIV HEALTHCARE UK (No. 5) LIMITED, priority 2018, dated 2024).

Data set [1] concerns recombinant NL4-3 virus (nef section replaced with Renilla luciferase gene) in MT-2 cells. Kind of data set: HIV cell culture assay (antiviral activity, luciferase readout in infected MT-2 cells). It is filed as cell-based. The note with it: Renilla, NL43. The procedure:
HIV cell culture assay-MT-2 cells, 293T cells and the proviral DNA clone of NL4-3 virus were obtained from the NIH AIDS Research and Reference Reagent Program. MT-2 cells were propagated in RPMI 1640 media supplemented with 10% heat inactivated fetal bovine serum (FBS), 100 μg/ml penicillin G and up to 100 units/mL streptomycin. The 293T cells were propagated in DMEM media supplemented with 10% heat inactivated FBS, 100 μg/mL penicillin G and 100 μg/mL streptomycin. A recombinant NL4-3 proviral clone, in which a section of the nef gene was replaced with the Renilla luciferase gene, was used to make the reference virus used in these studies. The recombinant virus was prepared through transfection of the recombinant NL4-3 proviral clone into 293T cells using Transit-293 Transfection Reagent from Minis Bio LLC (Madison, WI). Supernatent was harvested after 2-3 days and the amount of virus present was titered in MT-2 cells using luciferase enzyme activity as a marker by measuring luciferase enzyme activity. Luciferase was quantitated using the EnduRen Live Cell Substrate from Promega (Madison, WI). Antiviral activities of compounds toward the recombinant virus were quantified by measuring luciferase activity in MT-2 cells infected for 4-5 days with the recombinant virus in the presence of serial dilutions of the compound.
The 50% effective concentration (EC50) was calculated by using the exponential form of the median effect equation where (Fa)=1/[1+(ED50/drug conc.)m] (Johnson V A, Byington R T. Infectivity Assay. In Techniques in HIV Research. ed. Aldovini A, Walker B D. 71-76. New York: Stockton Press. 1990).

A short description of data set [2]: Compound cytotoxicity, XTT-based colorimetric assay. It is filed as cell-based. The note with it: human; uninfected MT2 cells, day 4, XTT assay. The procedure: Compound cytotoxicity and the corresponding CC50 values were determined using the same protocol as described in the antiviral assay except that uninfected cells were used. Cytotoxicity was assessed on day 4 in uninfected MT2 cells by using an XTT (2,3-bis[2-Methoxy-4-nitro-5-sulfophenyl]-2H-tetrazolium-5-carboxyanilide inner salt)-based colorimetric assay (Sigma-Aldrich, St Louis, Mo.).
For orientation: Tetrazolium assays rely on reduction of a dye to a coloured formazan, in cell work by metabolically active cells.

By EC50 is commonly meant the concentration needed to bring the measured effect to its halfway point. For orientation: CC50 means the concentration at which the toxic effect on the cells reaches its halfway point. Higher therefore signals lower toxicity to the cells. Take `Cn1nc(NS(C)(=O)=O)c2c(Cl)ccc(-n3c([C@H](Cc4cc(F)cc(F)c4)NC(=O)Cn4nc(C(F)F)c5c4C(F)(F)[C@@H]4C[C@H]54)nc4nc(OCCC(C)(C)C)ccc4c3=O)c21` (atropisomer, axis not shown; (P)) [Example 3, N—((S)-1-((3P)-3-(4-chloro-1-methyl-3-(methylsulfonamido)-1H-indazol-7-yl)-7-(3,3-dimethylbutoxy)-4-oxo-3,4-dihydropyrido[2,3-d]pyrimidin-2-yl)-2-(3,5-difluorophenyl)ethyl)-2-((3bS,4aR)-3-(difluoromethyl)-5,5-difluoro-3b,4,4a,5-tetrahydro-1H-cyclopropa[3,4]cyclopenta[1,2-c]pyrazol-1-yl)acetamide]: the EC50 in data set [1] was found to be 0.06 nM. Besides, the CC50 at 4 days in data set [2] is > 1000 nM.

For `Cn1nc(NS(C)(=O)=O)c2c(Cl)ccc(-n3c([C@H](Cc4cc(F)cc(F)c4)NC(=O)Cn4nc(C(F)F)c5c4C(F)(F)[C@@H]4C[C@H]54)nc4nc(OCc5ccccc5)ccc4c3=O)c21` (atropisomer, axis not shown; (P)) [Example 26, N—((S)-1-(7-(benzyloxy)-(3P)-3-(4-chloro-1-methyl-3-(methylsulfonamido)-1H-indazol-7-yl)-4-oxo-3,4-dihydropyrido[2,3-d]pyrimidin-2-yl)-2-(3,5-difluorophenyl)ethyl)-2-((3bS,4aR)-3-(difluoromethyl)-5,5-difluoro-3b,4,4a,5-tetrahydro-1H-cyclopropa[3,4]cyclopenta[1,2-c]pyrazol-1-yl)acetamide], the half-maximal effective concentration (EC50) in data set [1] was determined as 0.1 nM. Further, the CC50 at 4 days in data set [2] is > 100 nM.

Regarding `C[C@@H](Oc1ccc2c(=O)n(-c3ccc(Cl)c4c(NS(C)(=O)=O)nn(C)c34)c([C@H](Cc3cc(F)cc(F)c3)NC(=O)Cn3nc(C(F)F)c4c3C(F)(F)[C@@H]3C[C@H]43)nc2n1)C1CCCC1` (atropisomer, axis not shown; (P)) [Example 16, N—((S)-1-((3P)-3-(4-chloro-1-methyl-3-(methylsulfonamido)-1H-indazol-7-yl)-7-((R)-1-cyclopentylethoxy)-4-oxo-3,4-dihydropyrido[2,3-d]pyrimidin-2-yl)-2-(3,5-difluorophenyl)ethyl)-2-((3bS,4aR)-3-(difluoromethyl)-5,5-difluoro-3b,4,4a,5-tetrahydro-1H-cyclopropa[3,4]cyclopenta[1,2-c]pyrazol-1-yl)acetamide], in data set [1], the EC50 was 0.22 nM. Moreover, in data set [2], the CC50 at 4 days is > 500 nM.

With `C[C@H](Oc1ccc2c(=O)n(-c3ccc(Cl)c4c(NS(C)(=O)=O)nn(C)c34)c([C@H](Cc3cc(F)cc(F)c3)NC(=O)Cn3nc(C(F)F)c4c3C(F)(F)[C@@H]3C[C@H]43)nc2n1)C1CCCC1` (atropisomer, axis not shown; (P)) [Example 23, N—((S)-1-((3P)-3-(4-chloro-1-methyl-3-(methylsulfonamido)-1H-indazol-7-yl)-7-((S)-1-cyclopentylethoxy)-4-oxo-3,4-dihydropyrido[2,3-d]pyrimidin-2-yl)-2-(3,5-difluorophenyl)ethyl)-2-((3bS,4aR)-3-(difluoromethyl)-5,5-difluoro-3b,4,4a,5-tetrahydro-1H-cyclopropa[3,4]cyclopenta[1,2-c]pyrazol-1-yl)acetamide], the EC50 in data set [1] amounted to 0.17 nM. The CC50 at 4 days in data set [2] was > 500 nM.

For the compound `Cn1nc(NS(C)(=O)=O)c2c(Cl)ccc(-n3c([C@H](Cc4cc(F)cc(F)c4)NC(=O)Cn4nc(C(F)F)c5c4C(F)(F)[C@@H]4C[C@H]54)nc4nc(O)ccc4c3=O)c21` (atropisomer, axis not shown; (P)) [Example 1, N—((S)-1-((3P)-3-(4-chloro-1-methyl-3-(methylsulfonamido)-1H-indazol-7-yl)-7-hydroxy-4-oxo-3,4-dihydropyrido[2,3-d]pyrimidin-2-yl)-2-(3,5-difluorophenyl)ethyl)-2-((3bS,4aR)-3-(difluoromethyl)-5,5-difluoro-3b,4,4a,5-tetrahydro-1H-cyclopropa[3,4]cyclopenta[1,2-c]pyrazol-1-yl)acetamide], the EC50 in data set [1] is 2.7 nM. In data set [2], the CC50 at 4 days is > 1000 nM.

`CCCCOCCOc1ccc2c(=O)n(-c3ccc(Cl)c4c(NS(C)(=O)=O)nn(C)c34)c([C@H](Cc3cc(F)cc(F)c3)NC(=O)Cn3nc(C(F)F)c4c3C(F)(F)[C@@H]3C[C@H]43)nc2n1` (atropisomer, axis not shown; (P)) [Example 27, N—((S)-1-(7-(2-butoxyethoxy)-(3P)-3-(4-chloro-1-methyl-3-(methylsulfonamido)-1H-indazol-7-yl)-4-oxo-3,4-dihydropyrido[2,3-d]pyrimidin-2-yl)-2-(3,5-difluorophenyl)ethyl)-2-((3bS,4aR)-3-(difluoromethyl)-5,5-difluoro-3b,4,4a,5-tetrahydro-1H-cyclopropa[3,4]cyclopenta[1,2-c]pyrazol-1-yl)acetamide]: in data set [1], the EC50 is 0.041 nM. Besides, the CC50 at 4 days in data set [2] is > 100 nM.

For `Cn1nc(NS(C)(=O)=O)c2c(Cl)ccc(-n3c([C@H](Cc4cc(F)cc(F)c4)NC(=O)Cn4nc(C(F)F)c5c4C(F)(F)[C@@H]4C[C@H]54)nc4nc(OCC5CCCC5)ccc4c3=O)c21` (atropisomer, axis not shown; (P)) [Example 2, N—((S)-1-((3P)-3-(4-chloro-1-methyl-3-(methylsulfonamido)-1H-indazol-7-yl)-7-(cyclopentylmethoxy)-4-oxo-3,4-dihydropyrido[2,3-d]pyrimidin-2-yl)-2-(3,5-difluorophenyl)ethyl)-2-((3bS,4aR)-3-(difluoromethyl)-5,5-difluoro-3b,4,4a,5-tetrahydro-1H-cyclopropa[3,4]cyclopenta[1,2-c]pyrazol-1-yl)acetamide], the EC50 in data set [1] was 0.06 nM. Also, the cytotoxic concentration (CC50) at 4 days in data set [2] is > 1000 nM.

On to `CC(C)(C)CCOc1ccc2c(=O)n(-c3ccc(Cl)c4c(NS(C)(=O)=O)nn(CC(F)F)c34)c([C@H](Cc3cc(F)cc(F)c3)NC(=O)Cn3nc(C(F)F)c4c3C(F)(F)[C@@H]3C[C@H]43)nc2n1` (atropisomer, axis not shown; (P)) [Example 14, N—((S)-1-((3P)-3-(4-chloro-1-(2,2-difluoroethyl)-3-(methylsulfonamido)-1H-indazol-7-yl)-7-(3,3-dimethylbutoxy)-4-oxo-3,4-dihydropyrido[2,3-d]pyrimidin-2-yl)-2-(3,5-difluorophenyl)ethyl)-2-((3bS,4aR)-3-(difluoromethyl)-5,5-difluoro-3b,4,4a,5-tetrahydro-1H-cyclopropa[3,4]cyclopenta[1,2-c]pyrazol-1-yl)acetamide], for which, in data set [1], the EC50 was 0.12 nM. In data set [2], the CC50 at 4 days is > 500 nM.

As to `Cn1nc(NS(C)(=O)=O)c2c(Cl)ccc(-n3c([C@H](Cc4cc(F)cc(F)c4)NC(=O)Cn4nc(C(F)F)c5c4C(F)(F)[C@@H]4C[C@H]54)nc4nc(OCCc5nccs5)ccc4c3=O)c21` (atropisomer, axis not shown; (P)) [Example 18, N—((S)-1-((3P)-3-(4-chloro-1-methyl-3-(methylsulfonamido)-1H-indazol-7-yl)-4-oxo-7-(2-(thiazol-2-yl)ethoxy)-3,4-dihydropyrido[2,3-d]pyrimidin-2-yl)-2-(3,5-difluorophenyl)ethyl)-2-((3bS,4aR)-3-(difluoromethyl)-5,5-difluoro-3b,4,4a,5-tetrahydro-1H-cyclopropa[3,4]cyclopenta[1,2-c]pyrazol-1-yl)acetamide], the 50% effective concentration (EC50) in data set [1] was 0.038 nM. In addition, the CC50 at 4 days in data set [2] was > 500 nM.

As to `CCC(C)(C)CCOc1ccc2c(=O)n(-c3ccc(Cl)c4c(NS(C)(=O)=O)nn(C)c34)c([C@H](Cc3cc(F)cc(F)c3)NC(=O)Cn3nc(C(F)F)c4c3C(F)(F)[C@@H]3C[C@H]43)nc2n1` (atropisomer, axis not shown; (P)) [Example 13, N—((S)-1-((3P)-3-(4-chloro-1-methyl-3-(methylsulfonamido)-1H-indazol-7-yl)-7-((3,3-dimethylpentyl)oxy)-4-oxo-3,4-dihydropyrido[2,3-d]pyrimidin-2-yl)-2-(3,5-difluorophenyl)ethyl)-2-((3bS,4aR)-3-(difluoromethyl)-5,5-difluoro-3b,4,4a,5-tetrahydro-1H-cyclopropa[3,4]cyclopenta[1,2-c]pyrazol-1-yl)acetamide], in data set [1], the EC50 stood at 0.17 nM.

In the case of `Cn1nc(NS(C)(=O)=O)c2c(Cl)ccc(-n3c([C@H](Cc4cc(F)cc(F)c4)NC(=O)Cn4nc(C(F)F)c5c4C(F)(F)[C@@H]4C[C@H]54)nc4nc(OCCCC(C)(C)C)ccc4c3=O)c21` (atropisomer, axis not shown; (P)) [Example 19], the EC50 in data set [1] worked out at 0.11 nM.
